A short description of data set [1]: Plasma pharmacokinetics after intravenous injection. Format: in vivo, mouse. Also noted: distribution volume: unit not given here. Conditions: female Swiss nude mice, 2 nmol/animal. Here is the method: In female Swiss nude mice (N=18), the compound of Example 3 solubilized to 10 nmol/ml in 0.9% NaCl solution is injected intravenously (200 μl) into the caudal vein. Blood is collected at various times (5 and 30 minutes then 2, 4, 8 and 24 hours; 3 mice/sample time) and, after centrifugation, the supernatant plasma is transferred to heparinized tubes. The sample is then diluted in 50 μl of a 20 mM ammonium formate/acetonitrile/formic acid 50/50/0.1 buffer mixture to be analyzed by UPLC-MS/MS, ESI+.

Data set [2] deals with A549, H460, HCT116, U87MG tumors. Put plainly: Tumor fixation kinetics and ex vivo biodistribution, results stated across the tumor models. Format: in vivo, mouse. Here is the method: (§1) In the right rear paw of Swiss nude mice (N=12), 1 to 2×10^6 tumor cells are inoculated subcutaneously, forming a group of 3 mice for each tumor cell line (A549 human lung adenocarcinoma model; H460 human lung carcinoma model; HCT116 human colorectal carcinoma model; U87MG human glioblastoma model).
(§2) When the tumors reach a volume of between 0.5 and 1 cm, the compound of Example 3 (200 μl) solubilized at 10 nmol/ml in phosphate buffer solution (PBS) is injected intravenously.
(§3) Under gas anesthesia, 5 acquisitions are carried out at various times of the experiment (2, 4, 6, 8 and 24 hours) using a Caliper IVIS Lumina II apparatus (ex=680 nm; em=720 nm). In parallel, blood samples are taken.
(§4) After the animals are euthanized by cervical dislocation, the organs (kidney, liver, spleen, lung, tumor, blood, muscle, heart, intestine) are taken and ex vivo acquisition is carried out (Lumina II: ex=680 nm; em=720 nm).

The subject of data set [3] is K-rasLA1 murine model spontaneously developing bronchioloalveolar carcinoma. Put plainly: Targeting of spontaneous tumors, ex vivo lung fluorescence. Format: in vivo, mouse. Conditions: K-rasLA1 mice, 200 μl at 10 nmol/ml i.v. As for the experimental part:
On the K-rasLA1 murine model spontaneously developing bronchioloalveolar carcinoma, tumor development is controlled by X-ray scanner synchronized on respiration before injection of the product to be tested. The compound of Example 3 (200 μl) solubilized at 10 nmol/ml in phosphate buffer solution (PBS) is then injected intravenously.
After the animals are euthanized, the lungs are taken to be fixed by tracheal injection of neutral formalin. Acquisition of fluorescence ex vivo is carried out using a Caliper IVIS Lumina II apparatus (ex=680 nm; em=720 nm). A photograph of the excised lung is also taken.

The subject of data set [4] is H460 human lung carcinoma model. Briefly: Targeting of heterotopically-transplanted tumors, fluorescence imaging. Format: in vivo, mouse. Particulars: H460 xenograft in Swiss nude mice, 2 nmol i.v., t24h. As for the experimental part:
as §1, §2, §3, §4

The subject of data set [5] is A549 human lung adenocarcinoma model. The data set is described as above. Type of data set: in vivo, mouse. Conditions: A549 xenograft in Swiss nude mice, 2 nmol i.v., t24h. As for the experimental part:
as §1, §2, §3, §4

Data set [6] concerns U87MG human glioblastoma model. Described as above. Particulars: U87MG xenograft in Swiss nude mice, 2 nmol i.v., t24h. Type of data set: in vivo, mouse. Here is the method: as §1, §2, §3, §4
In data set [7] the test system is HCT116 human colorectal carcinoma model. The description is as above. Type of data set: in vivo, mouse. Conditions: HCT116 xenograft in Swiss nude mice, 2 nmol i.v., t24h. As for the experimental part: as §1, §2, §3, §4
The test system of data set [8] is U87MG (human glioblastoma) tumor cells. Put plainly: Interaction with tumor development, bioluminescence. Format: in vivo. Here is the method: In the right rear paw of Swiss nude mice (N=12), 3×10^6 U87MG (human glioblastoma) tumor cells are inoculated subcutaneously. When the tumor reaches a volume of 0.5 cm, luciferin (2 mg/mouse) is injected intraperitoneally in order to carry out bioluminescence acquisition and quantification at D0.
The animals are divided into 3 groups of 4 to form a control group with no injection; a group receiving a single intravenous injection of the compound of Example 3 (2 nmol in 200 μl); and a group receiving a weekly intravenous injection for 4 weeks of the compound of Example 3 (2 nmol in 200 μl). Lastly, bioluminescence acquisition and quantification are carried out 3 times per week after the intraperitoneal injection of luciferin.

By half-life is commonly meant the time needed for the level to fall by half in the phase considered. A word on the clearance: it is the volume of plasma or blood freed of the substance per unit of time. For `CC[N+]1=C(/C=C/C=C/C=C2/N(CCCCCC(=O)NCc3ccc4c(c3)Cc3cc(OCCCNc5cc(C)ccn5)ccc3CC4CC(=O)O)c3ccc4c(S(=O)(=O)O)cc(S(=O)(=O)O)cc4c3C2(C)C)C(C)(C)c2c1ccc1c(S(=O)(=O)O)cc(S(=O)(=O)O)cc21` (centres unmarked) [Example 3, Cy™ 5.5 Conjugate of the Compound of Preparation 1], the distribution volume in data set [1] was 1. In data set [1] (mouse, plasma), this compound showed a half-life of 15 h. The clearance in data set [1] (mouse, plasma, read-out: plasma clearance rate) was 0.8 mL/min/kg. Besides, in data set [2] (ex vivo, 24 hours after injection), the “biodistribution in the principal organs” value is “high specificity of the probe for the tumor”. Further, the “signal of tumor volume relative to muscle tissue” value in data set [2] (ex vivo, 24 hours after injection, on average) was 12 times. In addition, in data set [2] (ex vivo, t24h), the tumor/kidney ratio was found to be 2. The “visibility of targeted tumors by fluorescence imaging” value in data set [2] (whatever cancer line, 2 nmol i.v., 24 hours post-injection) was “clearly visible”. In addition, in data set [3], the “targeting of neoplastic lesions formed in situ” value is recorded as “strong potential of targeting”. Also, the tumor/healthy tissue ratio in data set [4] was determined as 1.66; in data set [5], 2.3; in data set [6], 3.5; in data set [7], 2. Also, the “tumor growth by bioluminescence” value in data set [8] (U87MG in Swiss nude mice, control, single i.v. injection, or weekly i.v. injection for 4 weeks, 2 nmol) is on record as “identical for the three groups”. The “anti- or pro-angiogenic effect” value in data set [8] (single or multiple injections, 2 nmol/mouse) is “No anti- or pro-angiogenic effect is observed”.
